Laboratory results as given in patent US20070286886A1, “Materials And Methods For Inducing Apoptosis In Adipocytes” (University of Tennessee Research Foundation, priority 2004, published 2007).

Key:
caspase-3 = test: Caspase-3 mRNA expression by real-time PCR in 3T3-L1 and UCP2-transfected 3T3-L1 adipocytes; assay type: cell-based
Experimental: (§1) 3T3-L1 preadipocytes were incubated at a density of 8000 cells/cm2 (10 cm2 dish) and grown in Dulbecco's modified Eagle's medium (DMEM) containing 10% FBS and antibiotics (adipocyte medium) at 37° C. in 5% CO2 in air. Confluent preadipocytes were induced to differentiate with a standard differentiation medium consisting of DMEM-F10 (1:1, vol/vol) medium supplemented with 1% FBS, 1 μM dexamethasone, IBMX (0.5 mM), and antibiotics (1% penicillin-streptomycin). Preadipocytes were maintained in this differentiation medium for 3 days and subsequently cultured in adipocyte medium. Cultures were re-fed every 2-3 days to allow 90% cells to reach full differentiation before they were chemically treated. Chemicals were freshly diluted in adipocyte medium before treatment. Cells were washed with fresh adipocyte medium, re-fed with medium containing the different treatments, and incubated at 37° C. in 5% CO2 in air before analysis. Cell viability was measured via trypan blue exclusion.
(§2) UCP2 full-length cDNAs were amplified by […] using mRNAs isolated from mouse white adipose tissues. The PCR primers for this amplification are shown as follows: UCP2 forward, 5′-[…]-3′, reverse, 5′-[…]-3′. The PCR products were then subcloned into pcDNA4/His expression vectors. The linearized constructs were transfected into 3T3-L1 preadipocytes using lipofectamine plus standard protocol (Invitrogen, Carlsbad, Calif.). After 48 h of transfection, cells were split and cultured in selective medium containing 400 ug/ml zeocin for the selection of resistant colonies. Cells were fed with selective medium every 3 days until resistant colonies could be identified. These resistant foci were picked, expanded, tested for expression, and frozen for future experiments.
A total cellular RNA isolation kit (Ambion, Austin, Tex.) was used to extract total RNA from 3T3-L1 cells according to the manufacturer's instructions.
Adipocyte caspase-1, caspase-3, Bcl-2, and Bax mRNA were quantitatively measured using a Smart Cycler Real Time PCR System (Cepheid, Sunnyvale, Calif.) with a TaqMan 1000 Core Reagent Kit (Applied Biosystems, Branchburg, N.J.). The primers and probe sets were ordered from Applied Biosystems TaqMan Assays-on-Demand Gene Expression primers and probe set collection according to the manufacturer's instructions. Pooled 3T3-L1 adipocyte total RNA was serial-diluted in the range of 1.5625-25 ng and used to establish a standard curve; total RNAs for unknown samples were also diluted in this range. Reactions of quantitative RT-PCR for standards and unknown samples were Cepheid, Sunnyvale, Calif.) and TaqMan Real Time PCR Core Kit. The mRNA quantitation for each sample was further normalized using the corresponding 18 s quantitation, with a forward primer, 5′-[…]-3′, and a reverse primer, 5′-[…]-3′.
3T3-L1 preadipocytes were incubated at a density of 8000 cells/cm2 (10 cm2 dish) and grown in Dulbecco's modified Eagle's medium (DMEM) containing 10% FBS and antibiotics at 37° C. in 5% CO2. Confluent preadipocytes were induced to differentiate with a standard differentiation medium consisting of DMEM-F 10 (1:1, vol/vol) medium supplemented with 1% FBS, 1 μM dexamethasone, IBMX (0.5 mM) and antibiotics (1% penicillin/streptomycin). Preadipocytes were maintained in this differentiation medium for 3 days and subsequently cultured in adipocyte medium. Cultures were re-fed every 2-3 days to allow 90% cells to reach fully differentiation before conducting chemical treatment. Chemicals were freshly diluted in adipocyte medium before treatment. Cells were washed with fresh adipocyte medium, re-fed with medium containing the different treatments, and incubated at 37° C. in 5% CO2 in air before analysis. Cell viability was measured via trypan blue exclusion.
Adipocytes were incubated with adipocyte medium for 24 h with or without GDP, BK 8644, GDP plus BK8644 before total RNA extraction. […]

[1] = tested on: 3T3-L1 and UCP2-transfected 3T3-L1 cells; test: Mitochondrial membrane potential (JC-1 fluorometry) in adipocytes; assay type: cell-based; settings: for increase in mitochondrial potential: p<0.05
Experimental: (§3) Adipocytes were incubated with adipocyte medium for 4 h with or without 1α,25-(OH)2-D3. Mitochondrial membrane potential was analyzed fluorometrically with a lipophilic cationic dye JC-1 (5,5′,6,6′-tetrachloro-1,1′,3,3′-tetraethylbenzimidazol carbocyanine iodide) using a mitochondrial potential detection kit (Biocarta, San Diego, Calif.). Mitochondrial potential was determined as the ratio of red fluorescence (excitation 550 nm, emission 600 nm) and green fluorescence (excitation 485 nm, emission 535 nm) using a fluorescence microplate reader.
as §3, with “GDP, BK 8644, GDP plus BK8644.” for “1α,25-(OH)2-D3.”

[2] = tested on: 3T3-L1 and UCP2-transfected 3T3-L1 adipocytes; test: Cytosolic/intracellular calcium (fura-2 dual-wavelength fluorescence imaging) in adipocytes; assay type: cell-based; settings: 3T3-L1 cells; data not shown
UCP2 = UCP2 expression in 3T3-L1 cells (western blot, UCP2/actin); assay type: cell-based, mouse; settings: siRNA transfected 3T3-L1 cells, 48 hrs after transfection
Experimental: Duplex siRNA corresponding to UCP2 gene was designed and chemically synthesized by Invitrogen. The following gene-specific sequences were used successfully: Si-UCP2 sense 5′-GCCUCUACGACUCUGUCAA-3′ and antisense […]. Transfection of siRNA was performed with Oligofectamine™ reagent (Invitrogen Life Technologies, CA) in 6-well plates. Briefly, Oligofectamine diluted in DMEM was applied to the duplex siRNA mixture, and the formulation was continued for 20 min to allow the Oligofectamine-oligonucleotide complex to form. Per well, 800 μl of plating medium and 10 ul of 20 μM duplex siRNA duplex siRNA formulated with 4 μl of Oligofectamine were applied in a final volume of 1 ml. Cells were then incubated at […] in a CO2 incubator for 4 hrs. […]
Adipocytes were harvested and sonicated in a homogenization buffer containing 50 mM Tris-HCl (PH 7.4), 250 mM sucrose, 1 mM EDTA, 1 mM dithiothreitol, 1% (v/v) Triton X, 10% protease cocktail (Sigma). […] Homogenate intrafranatant protein from equal numbers of cells (determined via protein quantitation using Bradford method as described previously) was boiled in Laemmli sample buffer and subject to 10% SDS-polyacrylamide gel electrophoresis (PAGE). […] Visualization was detected with chemiluminescence reagent, using the Western Blotting Luminal Reagent (Santa Cruz Biotechnology, CA).

caspase-1 = test: Caspase-1 mRNA expression by real-time PCR in 3T3-L1 and UCP2-transfected 3T3-L1 adipocytes; assay type: cell-based; settings: DNP 25 μM and 50 μM, 24 h; P<0.05
Experimental: as §1
as §2, with “Cells were fed with selective medium every 3 days until resistant colonies could be identified. These resistant foci were picked, expanded, tested for expression, and frozen for future experiments.” left out
(§4) Adipocyte caspase-1, caspase-3, Bcl-2, and Bax mRNA were quantitatively measured using a Smart Cycler Real Time PCR System (Cepheid, Sunnyvale, Calif.) with a TaqMan 1000 Core Reagent Kit (Applied Biosystems, Branchburg, N.J.). […] Reactions of quantitative RT-PCR for standards and unknown samples were Cepheid, Sunnyvale, Calif.) and TaqMan Real Time PCR Core Kit. The mRNA quantitation for each sample was further normalized using the corresponding 18 s quantitation, with a forward primer, 5′-[…]-3′, and a reverse primer, 5′-[…]-3′.

Bcl-2/Bax = Bcl-2/Bax expression ratio by real-time PCR in 3T3-L1 and UCP2-transfected 3T3-L1 adipocytes; assay type: cell-based; settings: DNP 25 μM and 50 μM, 24 h; P<0.02
Experimental: as §1
as §2, with “Cells were fed with selective medium every 3 days until resistant colonies could be identified. These resistant foci were picked, expanded, tested for expression, and frozen for future experiments.” left out
as §4

[3] = siRNA transfected 3T3-L1 cells (UCP2 ko) vs control

Compound: Nc1nc2c(ncn2[C@@H]2O[C@H](COP(=O)(O)OP(=O)(O)O)[C@@H](O)[C@H]2O)c(=O)[nH]1 [GDP, guanosine 5′-diphosphate]
- suppression of caspase-3 expression in BK8644 pretreated cells (caspase-3; 3T3-L1 cells pretreated with BK8644, p<0.05): 45%
- increase in mitochondrial potential ([1]; 100 μM, 3T3-L1 cells, 4 h): 27%
- increase in mitochondrial potential ([1]; 500 μM, 3T3-L1 cells, 4 h): 48%
- mitochondrial potential ([1]; 3T3-L1 cells, GDP): increased
- [Ca2+]i level [2]: decreased

Compound: siRNA: duplex siRNA corresponding to UCP2 gene, sense 5′-GCCUCUACGACUCUGUCAA-3′ (antisense UUGACAGAGUCGAGGC; chemistry not given here)
- decrease in caspase-3 expression (caspase-3; [3]): 58%
- increase in mitochondrial potential [1, 3]: 52%
- decrease in UCP2 expression (UCP2): 70%

Compound: O=[N+]([O-])c1ccc(O)c([N+](=O)[O-])c1 [DNP, 2,4-dinitrophenol]
- basal caspase-1 expression level compared with control cells (caspase-1): significantly higher
- basal caspase-3 expression level compared with control cells (caspase-3; DNP 25 μM and 50 μM, 24 h, P<0.05): significantly higher
- Bcl-2/Bax ratio versus nontransfected 3T3-L1 cells (Bcl-2/Bax): significantly lower
